# Measurements reported in the supplement of paper PMC10307832.
# How the values were obtained:
# Assay in all cases: relative viability (nuclei count vs DMSO), 5 days (fraction); higher = more cells survive
# NCI-H1915 = tested on: NCI-H1915
# Summary of the method: (§1)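 Relative viability divides the nuclei count in treated wells by that in vehicle wells. Lung cancer cell lines were seeded in 1536-well plates, dosed by pin tool the next day, and fixed and stained after 5 days in one step with final 0.05% Triton X-100, 1% formaldehyde and 1 ug/ml Hoechst. Dosing was a single drug or a fixed anchor-drug dose plus five library-drug doses (not always all listed) in √10 steps, and values are medians of duplicate plates imaged at 4×.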
# NCI-H1563 = tested on: NCI-H1563
# Summary of the method: as §1
# SW 900 = tested on: SW 900
# Summary of the method: as §1
# NCI-H1755 = tested on: NCI-H1755
# Summary of the method: as §1
# NCI-H596 = tested on: NCI-H596
# Summary of the method: as §1
# LCLC-103H = tested on: LCLC-103H
# Summary of the method: as §1
# RERF-LC-KJ = tested on: RERF-LC-KJ
# Summary of the method: as §1
# SK-MES-1 = tested on: SK-MES-1
# Summary of the method: as §1
# NCI-H1651 = tested on: NCI-H1651
# Summary of the method: as §1
# NCI-H441 = tested on: NCI-H441
# Summary of the method: as §1
# NCI-H460 = tested on: NCI-H460
# Summary of the method: as §1
# NCI-H661 = tested on: NCI-H661
# Summary of the method: as §1
# NCI-H322M = tested on: NCI-H322M
# Summary of the method: as §1
# PC-14 = tested on: PC-14
# Summary of the method: as §1
# NCI-H520 = tested on: NCI-H520
# Summary of the method: as §1
# NCI-H3122 = tested on: NCI-H3122
# Summary of the method: as §1
# NCI-H650 = tested on: NCI-H650
# Summary of the method: as §1
# NCI-H2170 = tested on: NCI-H2170
# Summary of the method: as §1
# NCI-H2347 = tested on: NCI-H2347
# Summary of the method: as §1
# NCI-H727 = tested on: NCI-H727
# Summary of the method: as §1
# NCI-H1355 = tested on: NCI-H1355
# Summary of the method: as §1
# LXF-289 = tested on: LXF-289
# Summary of the method: as §1
structure (smiles),measurement,setting,value
C[C@@H]1CN(CC(=O)Nc2ccc3c(c2)Cc2cccc(-c4cc(=O)cc(N5CCOCC5)o4)c2S3)C[C@H](C)O1 + COc1cc2c(Oc3ccc(NC(=O)C4(C(=O)Nc5ccc(F)cc5)CC4)cc3F)ccnc2cc1OCCCN1CCOCC1 [Foretinib] (partner 0.25 µM),relative viability,NCI-H1915; first compound 0.04 µM,1.06
same,relative viability,NCI-H1915; first compound 0.1265 µM,1.13
same,relative viability,NCI-H1915; first compound 0.4 µM,1.03
same,relative viability,NCI-H1915; first compound 4 µM,1.05
same,relative viability,NCI-H1563; first compound 0.04 µM,0.831
same,relative viability,NCI-H1563; first compound 0.1265 µM,0.894
same,relative viability,NCI-H1563; first compound 0.4 µM,0.908
same,relative viability,NCI-H1563; first compound 4 µM,0.788
same,relative viability,SW 900; first compound 0.04 µM,0.809
same,relative viability,SW 900; first compound 0.1265 µM,0.836
same,relative viability,SW 900; first compound 0.4 µM,0.816
same,relative viability,SW 900; first compound 4 µM,0.782
same,relative viability,NCI-H1755; first compound 0.04 µM,0.914
same,relative viability,NCI-H1755; first compound 0.1265 µM,0.887
same,relative viability,NCI-H1755; first compound 0.4 µM,0.875
same,relative viability,NCI-H1755; first compound 4 µM,0.798
same,relative viability,NCI-H596; first compound 0.04 µM,0.926
same,relative viability,NCI-H596; first compound 0.1265 µM,0.835
same,relative viability,NCI-H596; first compound 0.4 µM,0.909
same,relative viability,NCI-H596; first compound 4 µM,0.87
same,relative viability,LCLC-103H; first compound 0.04 µM,0.777
same,relative viability,LCLC-103H; first compound 0.1265 µM,0.671
same,relative viability,LCLC-103H; first compound 0.4 µM,0.671
same,relative viability,LCLC-103H; first compound 4 µM,0.608
same,relative viability,RERF-LC-KJ; first compound 0.04 µM,0.826
same,relative viability,RERF-LC-KJ; first compound 0.1265 µM,0.88
same,relative viability,RERF-LC-KJ; first compound 0.4 µM,0.827
same,relative viability,RERF-LC-KJ; first compound 4 µM,0.871
same,relative viability,SK-MES-1; first compound 0.04 µM,1.15
same,relative viability,SK-MES-1; first compound 0.1265 µM,0.822
same,relative viability,SK-MES-1; first compound 0.4 µM,0.76
same,relative viability,SK-MES-1; first compound 4 µM,0.746
same,relative viability,NCI-H1651; first compound 0.04 µM,0.924
same,relative viability,NCI-H1651; first compound 0.1265 µM,1.14
same,relative viability,NCI-H1651; first compound 0.4 µM,0.96
same,relative viability,NCI-H1651; first compound 4 µM,0.679
same,relative viability,NCI-H441; first compound 0.04 µM,0.925
same,relative viability,NCI-H441; first compound 0.1265 µM,0.978
same,relative viability,NCI-H441; first compound 0.4 µM,0.911
same,relative viability,NCI-H441; first compound 4 µM,0.934
same,relative viability,NCI-H460; first compound 0.04 µM,0.898
same,relative viability,NCI-H460; first compound 0.1265 µM,1.02
same,relative viability,NCI-H460; first compound 0.4 µM,1.1
same,relative viability,NCI-H460; first compound 4 µM,0.862
same,relative viability,NCI-H661; first compound 0.04 µM,0.776
same,relative viability,NCI-H661; first compound 0.1265 µM,1.04
same,relative viability,NCI-H661; first compound 0.4 µM,0.953
same,relative viability,NCI-H661; first compound 4 µM,0.927
same,relative viability,NCI-H322M; first compound 0.04 µM,0.508
same,relative viability,NCI-H322M; first compound 0.1265 µM,0.965
same,relative viability,NCI-H322M; first compound 0.4 µM,0.979
same,relative viability,NCI-H322M; first compound 4 µM,0.874
same,relative viability,PC-14; first compound 0.04 µM,0.94
same,relative viability,PC-14; first compound 0.1265 µM,0.864
same,relative viability,PC-14; first compound 0.4 µM,0.968
same,relative viability,PC-14; first compound 4 µM,0.902
same,relative viability,NCI-H520; first compound 0.04 µM,0.86
same,relative viability,NCI-H520; first compound 0.1265 µM,0.88
same,relative viability,NCI-H520; first compound 0.4 µM,0.527
same,relative viability,NCI-H520; first compound 4 µM,0.613
same,relative viability,NCI-H3122; first compound 0.04 µM,1.03
same,relative viability,NCI-H3122; first compound 0.1265 µM,0.902
same,relative viability,NCI-H3122; first compound 0.4 µM,0.961
same,relative viability,NCI-H3122; first compound 4 µM,0.914
same,relative viability,NCI-H650; first compound 0.04 µM,0.993
same,relative viability,NCI-H650; first compound 0.1265 µM,0.977
same,relative viability,NCI-H650; first compound 0.4 µM,1.03
same,relative viability,NCI-H650; first compound 4 µM,0.875
same,relative viability,NCI-H2170; first compound 0.04 µM,1.08
same,relative viability,NCI-H2170; first compound 0.1265 µM,0.97
same,relative viability,NCI-H2170; first compound 0.4 µM,0.648
same,relative viability,NCI-H2170; first compound 4 µM,1
same,relative viability,NCI-H2347; first compound 0.04 µM,0.758
same,relative viability,NCI-H2347; first compound 0.1265 µM,0.761
same,relative viability,NCI-H2347; first compound 0.4 µM,1.04
same,relative viability,NCI-H2347; first compound 4 µM,1.2
same,relative viability,NCI-H727; first compound 0.04 µM,0.98
same,relative viability,NCI-H727; first compound 0.1265 µM,0.783
same,relative viability,NCI-H727; first compound 0.4 µM,0.826
same,relative viability,NCI-H727; first compound 4 µM,1
same,relative viability,NCI-H1355; first compound 0.04 µM,0.95
same,relative viability,NCI-H1355; first compound 0.1265 µM,0.964
same,relative viability,NCI-H1355; first compound 0.4 µM,0.951
same,relative viability,NCI-H1355; first compound 4 µM,0.858
same,relative viability,LXF-289; first compound 0.04 µM,0.993
same,relative viability,LXF-289; first compound 0.1265 µM,1.01
same,relative viability,LXF-289; first compound 0.4 µM,0.985
same,relative viability,LXF-289; first compound 4 µM,0.936
CC(C)Oc1cc(Nc2nc(N[C@@H](C)c3ccc(F)cn3)ncc2Cl)n[nH]1 [AZ23] + COc1cc2c(Oc3ccc(NC(=O)C4(C(=O)Nc5ccc(F)cc5)CC4)cc3F)ccnc2cc1OCCCN1CCOCC1 [Foretinib] (partner 0.25 µM),relative viability,NCI-H1915; first compound 0.01 µM,1.22
same,relative viability,NCI-H1915; first compound 0.03162 µM,1.14
same,relative viability,NCI-H1915; first compound 0.3162 µM,1.08
same,relative viability,NCI-H1563; first compound 0.01 µM,0.922
same,relative viability,NCI-H1563; first compound 0.03162 µM,1.01
same,relative viability,NCI-H1563; first compound 0.3162 µM,0.993
same,relative viability,SW 900; first compound 0.01 µM,1.04
same,relative viability,SW 900; first compound 0.03162 µM,0.844
same,relative viability,SW 900; first compound 0.3162 µM,0.775
same,relative viability,NCI-H1755; first compound 0.01 µM,0.949
same,relative viability,NCI-H1755; first compound 0.03162 µM,0.94
same,relative viability,NCI-H1755; first compound 0.3162 µM,0.958
same,relative viability,NCI-H596; first compound 0.01 µM,0.89
same,relative viability,NCI-H596; first compound 0.03162 µM,0.877
same,relative viability,NCI-H596; first compound 0.3162 µM,0.737
same,relative viability,LCLC-103H; first compound 0.01 µM,0.729
same,relative viability,LCLC-103H; first compound 0.03162 µM,0.817
same,relative viability,LCLC-103H; first compound 0.3162 µM,0.78
same,relative viability,RERF-LC-KJ; first compound 0.01 µM,1.09
same,relative viability,RERF-LC-KJ; first compound 0.03162 µM,0.877
same,relative viability,RERF-LC-KJ; first compound 0.3162 µM,0.852
same,relative viability,SK-MES-1; first compound 0.01 µM,0.761
same,relative viability,SK-MES-1; first compound 0.03162 µM,1.05
same,relative viability,SK-MES-1; first compound 0.3162 µM,0.977
same,relative viability,NCI-H1651; first compound 0.03162 µM,0.828
same,relative viability,NCI-H1651; first compound 0.3162 µM,0.844
same,relative viability,NCI-H441; first compound 0.01 µM,1.52
same,relative viability,NCI-H441; first compound 0.03162 µM,0.854
same,relative viability,NCI-H441; first compound 0.3162 µM,0.967
same,relative viability,NCI-H460; first compound 0.01 µM,1.12
same,relative viability,NCI-H460; first compound 0.03162 µM,1.11
same,relative viability,NCI-H460; first compound 0.3162 µM,1.05
same,relative viability,NCI-H661; first compound 0.01 µM,1.15
same,relative viability,NCI-H661; first compound 0.03162 µM,1.06
same,relative viability,NCI-H661; first compound 0.3162 µM,1
same,relative viability,NCI-H322M; first compound 0.03162 µM,0.96
same,relative viability,NCI-H322M; first compound 0.3162 µM,1.04
same,relative viability,PC-14; first compound 0.01 µM,1.1
same,relative viability,PC-14; first compound 0.03162 µM,1
same,relative viability,PC-14; first compound 0.3162 µM,1.13
same,relative viability,NCI-H520; first compound 0.01 µM,0.813
same,relative viability,NCI-H520; first compound 0.03162 µM,0.966
same,relative viability,NCI-H520; first compound 0.3162 µM,0.677
same,relative viability,NCI-H3122; first compound 0.01 µM,1.15
same,relative viability,NCI-H3122; first compound 0.03162 µM,0.918
same,relative viability,NCI-H3122; first compound 0.3162 µM,0.981
same,relative viability,NCI-H650; first compound 0.01 µM,0.988
same,relative viability,NCI-H650; first compound 0.03162 µM,1.01
same,relative viability,NCI-H650; first compound 0.3162 µM,1
same,relative viability,NCI-H2170; first compound 0.01 µM,1.16
same,relative viability,NCI-H2170; first compound 0.03162 µM,0.98
same,relative viability,NCI-H2170; first compound 0.3162 µM,0.849
same,relative viability,NCI-H2347; first compound 0.01 µM,0.85
same,relative viability,NCI-H2347; first compound 0.03162 µM,0.986
same,relative viability,NCI-H2347; first compound 0.3162 µM,1.15
same,relative viability,NCI-H727; first compound 0.01 µM,0.789
same,relative viability,NCI-H727; first compound 0.03162 µM,0.852
same,relative viability,NCI-H727; first compound 0.3162 µM,1.1
same,relative viability,NCI-H1355; first compound 0.01 µM,1.21
same,relative viability,NCI-H1355; first compound 0.03162 µM,1.07
same,relative viability,NCI-H1355; first compound 0.3162 µM,1.01
same,relative viability,LXF-289; first compound 0.01 µM,1.14
same,relative viability,LXF-289; first compound 0.03162 µM,0.977
same,relative viability,LXF-289; first compound 0.3162 µM,0.949
